Experimental data as given in PubChem BioAssay AID2060502 (Molecular Pharmacology Branch, DTP, NCI, 2025).

Test system: 885724-159-R-J1-PDC complex spheroid viability
Experiment: Anticancer human tumor 885724-159-R-J1-PDC patient-derived pancreatic adenocarcinoma cell line growth inhibition [GQUAD]
Details: for IC50: curve of first compound; for viability, T/C: stronger effect = lower value
Summary of the method: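 Tumor cells were grown as complex spheroids with HUVEC endothelial cells and mesenchymal stem cells as stroma. G-quadruplex stabilizers were combined with targeted agents over half-log dilutions from near the clinical Cmax, or from 10 microM.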

[1] = second compound 0.0316 µM, first compound 0.0316 µM
[2] = second compound 0.0316 µM, first compound 0.1 µM
[3] = second compound 0.0316 µM, first compound 0.316 µM
[4] = second compound 0.0316 µM, first compound 1 µM
[5] = second compound 0.0316 µM, first compound 3.16 µM
[6] = second compound 0.0316 µM, first compound 10 µM
[7] = second compound 0.1 µM, first compound 0.0316 µM
[8] = second compound 0.1 µM, first compound 0.1 µM
[9] = second compound 0.1 µM, first compound 0.316 µM
[10] = second compound 0.1 µM, first compound 1 µM
[11] = second compound 0.1 µM, first compound 3.16 µM
[12] = second compound 0.1 µM, first compound 10 µM
[13] = second compound 0.316 µM, first compound 0.0316 µM
[14] = second compound 0.316 µM, first compound 0.1 µM
[15] = second compound 0.316 µM, first compound 0.316 µM
[16] = second compound 0.316 µM, first compound 1 µM
[17] = second compound 0.316 µM, first compound 3.16 µM
[18] = second compound 0.316 µM, first compound 10 µM
[19] = second compound 1 µM, first compound 0.0316 µM
[20] = second compound 1 µM, first compound 0.1 µM
[21] = second compound 1 µM, first compound 0.316 µM
[22] = second compound 1 µM, first compound 1 µM
[23] = second compound 1 µM, first compound 3.16 µM
[24] = second compound 1 µM, first compound 10 µM
[25] = second compound 3.16 µM, first compound 0.0316 µM
[26] = second compound 3.16 µM, first compound 0.1 µM
[27] = second compound 3.16 µM, first compound 0.316 µM
[28] = second compound 3.16 µM, first compound 1 µM
[29] = second compound 3.16 µM, first compound 3.16 µM
[30] = second compound 3.16 µM, first compound 10 µM
[31] = second compound 10 µM, first compound 0.0316 µM
[32] = second compound 10 µM, first compound 0.1 µM
[33] = second compound 10 µM, first compound 0.316 µM
[34] = second compound 10 µM, first compound 1 µM
[35] = second compound 10 µM, first compound 3.16 µM
[36] = second compound 10 µM, first compound 10 µM
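Also: spheroids exposed to agents for seven days before readout.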
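For viability, T/C in this document: percent of vehicle control viability where 100% = DMSO wells.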

COc1cccc2c1C(=O)c1c(O)c3c(c(O)c1C2=O)CC(O)(C(=O)CO)CC3OC1CC(N)C(O)C(C)O1 (stereo unspecified) + Cc1[nH]c2ccc(F)cc2c1-c1nc2c3cccnc3c3ncccc3c2[nH]1
IC50 (second compound 0.0316 µM): 1970 nM
IC50 (second compound 0.1 µM): 2290 nM
IC50 (second compound 0.316 µM): 2490 nM
IC50 (second compound 1 µM): 2530 nM
IC50 (second compound 3.16 µM): 37.4 nM
IC50 (second compound 10 µM): 2000 nM
viability, T/C [1]: 104%
viability, T/C [2]: 98.8%
viability, T/C [3]: 92%
viability, T/C [4]: 71.8%
viability, T/C [5]: 34.8%
viability, T/C [6]: 5.27%
viability, T/C [7]: 119%
viability, T/C [8]: 99.5%
viability, T/C [9]: 89.2%
viability, T/C [10]: 74.7%
viability, T/C [11]: 41%
viability, T/C [12]: 2.4%
viability, T/C [13]: 91%
viability, T/C [14]: 96.2%
viability, T/C [15]: 86.6%
viability, T/C [16]: 64%
viability, T/C [17]: 47.8%
viability, T/C [18]: 2.12%
viability, T/C [19]: 78.2%
viability, T/C [20]: 69.3%
viability, T/C [21]: 71.5%
viability, T/C [22]: 61.2%
viability, T/C [23]: 49%
viability, T/C [24]: 1.09%
viability, T/C [25]: 52.8%
viability, T/C [26]: 43.5%
viability, T/C [27]: 29.2%
viability, T/C [28]: 26.4%
viability, T/C [29]: 22.5%
viability, T/C [30]: 0.94%
viability, T/C [31]: 73.3%
viability, T/C [32]: 64.9%
viability, T/C [33]: 58.6%
viability, T/C [34]: 69.5%
viability, T/C [35]: 39%
viability, T/C [36]: 1.06%

Nc1ccn(C2OC(CO)C(O)C2(F)F)c(=O)n1 (stereo unspecified) + Cc1[nH]c2ccc(F)cc2c1-c1nc2c3cccnc3c3ncccc3c2[nH]1
IC50 (second compound 0.0316 µM): > 10000 nM
IC50 (second compound 0.1 µM): > 10000 nM
IC50 (second compound 0.316 µM): > 10000 nM
IC50 (second compound 1 µM): > 10000 nM
IC50 (second compound 3.16 µM): < 31.6 nM
IC50 (second compound 10 µM): > 10000 nM
viability, T/C [1]: 92.8%
viability, T/C [2]: 100%
viability, T/C [3]: 75.2%
viability, T/C [4]: 75.6%
viability, T/C [5]: 75.3%
viability, T/C [6]: 80.8%
viability, T/C [7]: 94.3%
viability, T/C [8]: 82.2%
viability, T/C [9]: 71.4%
viability, T/C [10]: 79.5%
viability, T/C [11]: 73.8%
viability, T/C [12]: 86.6%
viability, T/C [13]: 93.6%
viability, T/C [14]: 89.3%
viability, T/C [15]: 77.3%
viability, T/C [16]: 72.2%
viability, T/C [17]: 79.3%
viability, T/C [18]: 69.3%
viability, T/C [19]: 83.3%
viability, T/C [20]: 67.6%
viability, T/C [21]: 65.8%
viability, T/C [22]: 56.6%
viability, T/C [23]: 70.7%
viability, T/C [24]: 55%
viability, T/C [25]: 43.3%
viability, T/C [26]: 26.1%
viability, T/C [27]: 28.3%
viability, T/C [28]: 22.6%
viability, T/C [29]: 26.1%
viability, T/C [30]: 20.3%
viability, T/C [31]: 67.7%
viability, T/C [32]: 72.9%
viability, T/C [33]: 59%
viability, T/C [34]: 58.4%
viability, T/C [35]: 61.2%
viability, T/C [36]: 62%

O=c1[nH]cc(F)c(=O)[nH]1 + Cc1[nH]c2ccc(F)cc2c1-c1nc2c3cccnc3c3ncccc3c2[nH]1
IC50 (second compound 0.0316 µM): > 10000 nM
IC50 (second compound 0.1 µM): > 10000 nM
IC50 (second compound 0.316 µM): > 10000 nM
IC50 (second compound 1 µM): > 10000 nM
IC50 (second compound 3.16 µM): < 31.6 nM
IC50 (second compound 10 µM): > 10000 nM
viability, T/C [1]: 101%
viability, T/C [2]: 103%
viability, T/C [3]: 98.5%
viability, T/C [4]: 95.9%
viability, T/C [5]: 97.1%
viability, T/C [6]: 86%
viability, T/C [7]: 103%
viability, T/C [8]: 89.3%
viability, T/C [9]: 91%
viability, T/C [10]: 93.5%
viability, T/C [11]: 93.7%
viability, T/C [12]: 86.3%
viability, T/C [13]: 107%
viability, T/C [14]: 94.7%
viability, T/C [15]: 81.6%
viability, T/C [16]: 82%
viability, T/C [17]: 97.5%
viability, T/C [18]: 95.6%
viability, T/C [19]: 76.4%
viability, T/C [20]: 74.7%
viability, T/C [21]: 75%
viability, T/C [22]: 70.7%
viability, T/C [23]: 68.3%
viability, T/C [24]: 69.9%
viability, T/C [25]: 39.2%
viability, T/C [26]: 42.6%
viability, T/C [27]: 41.3%
viability, T/C [28]: 41.6%
viability, T/C [29]: 45.1%
viability, T/C [30]: 42.3%
viability, T/C [31]: 66.1%
viability, T/C [32]: 77.2%
viability, T/C [33]: 70.3%
viability, T/C [34]: 71.3%
viability, T/C [35]: 81.3%
viability, T/C [36]: 62.9%
